Assays:
Format in all cases: in vivo
[1] = system: CD8-positive T cells in peripheral blood; assay: Number of CD8-positive T cells in peripheral blood in FM3A syngeneic mouse model (flow cytometry); details: day 8; irinotecan 250 mg/kg ip once; P<0.05, Wilcoxon Signed-Rank Test
Protocol: On day 8 of administration, peripheral blood was collected, CD8-positive T cells were measured by flow cytometry (FIG. 2).

[2] = system: CD8-positive T cells in tumor; assay: CD8, CD69 or Ki-67-positive tumor-infiltrating lymphocytes in FM3A syngeneic mouse model (flow cytometry); details: day 8, irinotecan 250 mg/kg ip once
Excerpt: On day 8 of administration, tumors were collected, and then cells were dissociated using a gentleMACS (Trademark) Octo Dissociator, washed, and then used for flow cytometry, thereby quantitatively determining CD8, CD69 or Ki-67-positive tumor-infiltrating lymphocytes (TIL) (FIG. 3).

[3] = system: Foxp3-positive CD4-positive regulatory T cells in tumor; assay: Foxp3-positive CD4-positive regulatory T cells in tumor in FM3A syngeneic mouse model (flow cytometry); details: day 8; irinotecan 250 mg/kg ip once
Excerpt: On day 8 of administration, tumors were collected, and then cells were dissociated using a gentleMACS (Trademark) Octo Dissociator, washed, and then used for flow cytometry, thereby measuring Foxp3-positive CD4-positive regulatory T cells by flow cytometry (FIG. 4).

In the case of `CCc1c2c(nc3ccc(OC(=O)N4CCC(N5CCCCC5)CC4)cc13)-c1cc3c(c(=O)n1C2)COC(=O)[C@]3(O)CC` [irinotecan], the “number of CD8-positive T cells in peripheral blood versus solvent administration group” value [1] is reported as “significantly lower”, the “CD8-positive T cells in lymph nodes compared with the solvent administration group (FIG. 3A)” value [2] is reported as “not found to exhibit any significant decrease” and the “CD69-positive CD8-positive T cells among tumor cells compared with the solvent administration group (FIG. 3B)” value [2] is reported as “not found to exhibit any significant decrease”. For the same compound, the “Ki-67-positive CD8-positive T cells in tumors compared with the solvent administration group (FIG. 3C)” value ([2]; 10F.9G2 10 mg/kg ip 3 times a week) was “significant increases” and the “Foxp3-positive CD4-positive regulatory T cells in tumors versus solvent administration group” value [3] was “significantly lower”.
